Source: patent US12152019B2, “Arylalkyl pyrazole compounds as indoleamine 2,3-dioxygenase inhibitors” (Merck Sharp & Dohme LLC, priority 2018, dated 2024)

How the values were obtained:
IDO1 [1] = target: T1, IDO1 (Homo sapiens, UniProt P14902); experiment: IDO1 Human Whole Blood Assay; type: cell-based; details: LPS and IFNγ 100 ng/mL, overnight (18 h), kynurenine by LC/MS/MS
Description: IDO1 Human Whole Blood Assay Compounds to be tested were serially diluted in ten 3-fold steps in DMSO starting from 10 mM. 3 μL of compound dilutions or DMSO alone were then dispensed from the dilution plate into a polypropylene 96-well assay plate containing 97 μL of RPMI using an Echo 555 acoustic liquid handler (Labcyte). LPS and IFNγ was prepared in RPMI to a 10× of final conc. (1000 ng/mL), final concentration is 100 ng/mL. […] 240 μL of blood was transferred to each of the wells of a v-bottom 96 well plate. 30 μL of compound was transferred from intermediate dilution plate, and incubated for 15 min. 30 μL from stimulants was then transferred to blood and mixed thoroughly. Plate was covered with breathable membrane and incubated at 37° C. for overnight (18 h). […] Plasma was diluted with RPMI in 1:1 ratio and proteins were precipitated out with two volume of Acetonitrile. The plates were centrifuged at 4000×G for 60 min. 20 μL of supernatant was carefully transferred to a 384 well plate contain 40 μL of 0.1% formic acid in water and analyzed by LC/MS/MS. LC/MS/MS analyses were performed using Thermo Fisher's LX4-TSQ Quantum Ultra system. This system consists of four Agilent binary high-performance liquid chromatography (HPLC) pumps and a TSQ Quantum Ultra triple quadrupole MS/MS instrument. For each sample, 5 μL were injected onto an Atlantis T3 column (2.1 mm×150 mm, 3 μm particle size) from Waters. The mobile phase gradient pumped at 0.8 mL/min was used to elute the analytes from the column at 25° C. The elution started at 0% B increasing linearly to 25% B at 6.5 min, holding at 25% for 1 min, re-equilibrating to 10 min. Mobile phase A consisted of 0.1% formic acid in water. Mobile phase B consisted of 0.1% of formic acid in acetonitrile. Data was acquired in positive mode using a HESI interface. The operational parameters for the TSQ Quantum Ultra instrument were a spray voltage of 4000 V, capillary temperature of 380° C., vaporizer temperature 400° C., shealth gas 60 arbitrary units, Aux gas 20 arbitrary units, tube lens 85 and collision gas 1.2 mTorr. SRM chromatograms of kynurenine (Q1: 209.2>Q3:94.0) and internal standard (Q1: 215.3>Q3:98.2) were collected for 90 sec. The peak area was integrated by Xcalibur Quan software. […] Compounds were titrated and IC50's were calculated by 4 parameter sigmoidal curve fitting formula.

IDO1 [2] = target: T1, IDO1; experiment: IDO1 Cellular Assay in HeLa Cells Stimulated with IFNγ; type: cell-based; details: HeLa Cell Potency, IC50 (nM)
[3] = read-out: Human Whole Blood Potency, IC50

T1 sequence (P14902 whole entry): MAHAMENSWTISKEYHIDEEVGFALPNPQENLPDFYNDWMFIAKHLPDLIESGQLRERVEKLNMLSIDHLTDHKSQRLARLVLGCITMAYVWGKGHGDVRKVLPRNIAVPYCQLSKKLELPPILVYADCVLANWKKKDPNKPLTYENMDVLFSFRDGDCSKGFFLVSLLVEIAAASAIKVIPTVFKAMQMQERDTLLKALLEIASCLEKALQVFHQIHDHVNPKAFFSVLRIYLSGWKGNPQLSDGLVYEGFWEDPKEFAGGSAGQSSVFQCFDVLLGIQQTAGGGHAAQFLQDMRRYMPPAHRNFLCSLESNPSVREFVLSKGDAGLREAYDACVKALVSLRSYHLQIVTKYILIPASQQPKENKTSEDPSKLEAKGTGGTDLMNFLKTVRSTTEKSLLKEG

Structure (SMILES)	IC50 (IDO1 [1]; [3])	IC50 (IDO1 [1]; Human Whole Blood Potency, IC50 (nM))	IC50 (IDO1 [2])
Cc1cccnc1O[C@H]1CC[C@@H](CCn2nc(C(=O)N3CC[C@H](O)[C@H](F)C3)c3c2C[C@H]2C[C@@H]32)CC1 [Example 83, [(3R,4S)-3-fluoro-4-hydroxypiperidin-1-yl] [(3bR,4aR)-1-(2-{cis-4-[(3-methylpyridin-2-yl)oxy]cyclohexyl}ethyl)-3b,4,4a,5-tetrahydro-1H-cyclopropa[3,4]cyclopenta [1,2-c]pyrazol-3-yl] methanone]	110 nM	–	–
Cc1cccnc1O[C@H]1CC[C@@H](CCn2nc(C(=O)N3CCC(O)CC3)c3c2C[C@H](C(F)F)CC3)CC1 [Example 87, [(6R)-6-(difluoromethyl)-1-(2-{cis-4-[(3-methylpyridin-2-yl)oxy]cyclohexyl}ethyl)-4,5,6,7-tetrahydro-1H-indazol-3-yl](4-hydroxypiperidin-1-yl)methanone]	736 nM	–	–
Cc1cccc(N2CCC(CCn3nc(C(=O)N4CCCC4)c4ccccc43)CC2)c1C [Example 103]	–	1030 nM	15.4 nM

More lines, main results first:

IC50 (IDO1 [1]; [3])	Structure (SMILES)	IC50 (IDO1 [1]; Human Whole Blood Potency, IC50 (nM))	IC50 (IDO1 [2])
247 nM	CC(=O)NC1CCN(C(=O)c2nn(CCN3CCN(c4cccc(C)c4C)CC3)c3c2[C@@H]2C[C@@H]2C3)CC1 [Example 100, N-(1-((3bR,4aR)-1-(2-(4-(2,3-dimethylphenyl)piperazin-1-yl)ethyl)-3b,4,4a,5-tetrahydro-1H-cyclopropa[3.4]cyclopenta[1,2-c]pyrazole-3-carbonyl)piperidin-4-yl)acetamide]	–	–
261 nM	CC(=O)NC1CCN(C(=O)c2nn(CCN3CCN(c4cccc(Cl)c4C)CC3)c3c2[C@@H]2C[C@@H]2C3)CC1 [Example 102, N-(1-((3bR,4aR)-1-(2-(4-(3-chloro-2-methylphenyl)piperazin-1-yl)ethyl)-3b,4,4a,5-tetrahydro-1H-cyclopropa[3,4]cyclopenta[1,2-c]pyrazole-3-carbonyl)piperidin-4-yl)acetamide]	–	–
